Positions count from the first letter of the chain named. Several values for one entry are separate records, joined by “and”; a condition that tells them apart may be missing. Equal values may be shown once. Read-outs that look alike come from different tables or passages of the source.
How the values were obtained:
Type in all cases: biochemical
[1] = molecular target: T1, USP28Δtip H261A (Homo sapiens, UniProt Q96RU2, H261A/INS458SGSG); experiment: Ub-Rho110 dose–response assay, USP28Δtip H261A; conditions: for IC50: USP28 - H261A
T1 sequence (Q96RU2 with tags, fused parts or gaps H261A/INS458SGSG): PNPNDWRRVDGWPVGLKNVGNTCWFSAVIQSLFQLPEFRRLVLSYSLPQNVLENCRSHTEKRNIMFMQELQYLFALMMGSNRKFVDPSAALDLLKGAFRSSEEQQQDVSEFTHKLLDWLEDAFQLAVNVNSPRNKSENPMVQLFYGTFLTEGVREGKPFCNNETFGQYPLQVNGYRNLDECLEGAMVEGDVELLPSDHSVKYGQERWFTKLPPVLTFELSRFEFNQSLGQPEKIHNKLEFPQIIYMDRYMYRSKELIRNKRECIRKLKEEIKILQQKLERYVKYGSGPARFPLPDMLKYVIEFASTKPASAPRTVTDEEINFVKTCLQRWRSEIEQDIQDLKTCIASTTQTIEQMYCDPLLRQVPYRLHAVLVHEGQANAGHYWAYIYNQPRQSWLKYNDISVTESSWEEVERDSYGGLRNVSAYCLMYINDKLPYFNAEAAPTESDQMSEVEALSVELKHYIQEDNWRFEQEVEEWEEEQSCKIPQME

[2] = molecular target: T2, USP28Δtip Q315A (Homo sapiens, UniProt Q96RU2, INS458SGSG/Q315A); experiment: Ub-Rho110 dose–response assay, USP28Δtip Q315A; conditions: for IC50: USP28 - Q315A
T2 sequence (Q96RU2 with tags, fused parts or gaps Q315A/INS458SGSG): T1 sequence (Q96RU2 with tags, fused parts or gaps H261A/INS458SGSG)

[3] = molecular target: T3, USP28Δtip E366Q (Homo sapiens, UniProt Q96RU2, E366Q/INS458SGSG); experiment: Ub-Rho110 dose–response assay, USP28Δtip E366Q; conditions: for IC50: USP28 - E366Q
T3 sequence (Q96RU2 with tags, fused parts or gaps E366Q/INS458SGSG): T1 sequence (Q96RU2 with tags, fused parts or gaps H261A/INS458SGSG)

[4] = molecular target: T4, USP25Δtip WT (Homo sapiens, UniProt Q9UHP3, A536G/DEL465-477/DEL482-535/P478G/P537S); experiment: Ub-Rho110 dose–response assay, USP25Δtip wt; conditions: single replicates
T4 construct: 6xHis or thioredoxin-6xHis (N, cleaved yes); made in house; host or cells: E. coli BL21star (DE3)
T4 sequence (Q9UHP3 with tags, fused parts or gaps DEL465-477/P478G/DEL482-535/A536G/P537S limits assumed): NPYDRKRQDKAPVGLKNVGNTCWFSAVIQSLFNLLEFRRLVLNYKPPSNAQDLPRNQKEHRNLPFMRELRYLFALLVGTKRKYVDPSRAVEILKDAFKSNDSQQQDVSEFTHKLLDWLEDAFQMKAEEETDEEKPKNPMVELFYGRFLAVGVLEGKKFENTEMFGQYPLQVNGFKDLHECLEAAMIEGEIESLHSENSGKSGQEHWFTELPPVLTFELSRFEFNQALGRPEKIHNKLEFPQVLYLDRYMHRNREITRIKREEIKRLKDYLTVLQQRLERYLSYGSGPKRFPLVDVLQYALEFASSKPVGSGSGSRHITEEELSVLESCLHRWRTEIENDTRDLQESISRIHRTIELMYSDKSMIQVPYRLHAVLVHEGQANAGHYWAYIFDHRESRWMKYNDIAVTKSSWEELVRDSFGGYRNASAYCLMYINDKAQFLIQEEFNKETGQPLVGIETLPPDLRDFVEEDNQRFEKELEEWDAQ

[5] = molecular target: T5, USP25Δtip D272S (Homo sapiens, UniProt Q9UHP3, D272S/DEL465-537/INS464GSGSGS); experiment: Ub-Rho110 dose–response assay, USP25Δtip D272S
T5 construct: 6xHis or thioredoxin-6xHis (N, cleaved yes); made in house; host or cells: E. coli BL21star (DE3)
T5 sequence (Q9UHP3 with tags, fused parts or gaps D272S/DEL465-477/P478G/DEL482-535/A536G/P537S limits assumed): T4 sequence (Q9UHP3 with tags, fused parts or gaps DEL465-477/P478G/DEL482-535/A536G/P537S limits assumed) with D116S

[6] = molecular target: T6, USP25Δtip E373Q (Homo sapiens, UniProt Q9UHP3, DEL465-537/E373Q/INS464GSGSGS); experiment: Ub-Rho110 dose–response assay, USP25Δtip E373Q
T6 construct: 6xHis or thioredoxin-6xHis (N, cleaved yes); made in house; host or cells: E. coli BL21star (DE3)
T6 sequence (Q9UHP3 with tags, fused parts or gaps E373Q/DEL465-477/P478G/DEL482-535/A536G/P537S limits assumed): T4 sequence (Q9UHP3 with tags, fused parts or gaps DEL465-477/P478G/DEL482-535/A536G/P537S limits assumed) with E217Q

[7] = mean of replicates, read-out: IC50, mean and SD
[8] = single replicates, read-out: IC50 of each replicate curve (unlabelled line above mean and SD)
[9] = read-out: relative inhibition [%] - USP28 - H261A
[10] = read-out: relative inhibition [%] - USP28 - Q315A
[11] = read-out: relative inhibition [%] - USP28 - E366Q

Cc1ccc2c(N)c(C(=O)NC3CCc4cc(N5CC6CCC(C5)N6)ccc4C3)sc2n1 (stereo not shown) [FT206]
t-test vs. USP28 WT control - H261A [1]: 1.437E-02
IC50 [1, 7]: 1.37 µM
IC50 [1, 8]: 2.48 µM and 1.42 µM and 1.16 µM and 1.02 µM and 0.771 µM
inhibition at 11.11 µM [1, 9]: 80.8%
inhibition at 33.33 µM [1, 9]: 98.5%
inhibition at 100 µM [1, 9]: 107%
inhibition at […] [1, 9]: 74.8%
t-test vs. USP28 WT control - Q315A [2]: 6.868E-03
IC50 [2, 7]: 0.36 µM
IC50 [2, 8]: 0.492 µM and 0.375 µM and 0.444 µM and 0.267 µM and 0.246 µM
inhibition at 11.11 µM [2, 10]: 96.4%
inhibition at 33.33 µM [2, 10]: 97.8%
inhibition at 100 µM [2, 10]: 98.7%
inhibition at […] [2, 10]: 92.1% and 78.6% and 44.2%
t-test vs. USP28 WT control - E366Q [3]: 3.570E-04
IC50 [3, 7]: 17.2 µM
IC50 [3, 8]: 21.3 µM and 17.6 µM and 14.7 µM and 24.4 µM and 11.5 µM and 13.7 µM
inhibition at 11.11 µM [3, 11]: 34.7%
inhibition at 33.33 µM [3, 11]: 57.1%
inhibition at 100 µM [3, 11]: 78.7%
inhibition at 11.11 µM ([4]; read-out: relative inhibition [%] - USP25 - WT, inhibitor 11.11 µM): 91.9%
inhibition at 33.33 µM ([4]; read-out: relative inhibition [%] - USP25 - WT, inhibitor 33.33 µM): 99%
inhibition at 100 µM ([4]; read-out: relative inhibition [%] - USP25 - WT, inhibitor 100.00 µM): 100%
t-test vs. USP25 WT control - D272S ([5]; p value, inhibitor IC50 on USP25 D272S compared with USP25 WT): 3.650E-02
inhibition at 33.33 µM ([5]; read-out: relative inhibition [%] - USP25 - D272S, inhibitor 33.33 µM, single replicates): 87.3%
inhibition at 100 µM ([5]; read-out: relative inhibition [%] - USP25 - D272S, inhibitor 100.00 µM, single replicates): 95.2%
t-test vs. USP25 WT control - E373Q ([6]; p value, inhibitor IC50 on USP25 E373Q compared with USP25 WT): 8.243E-06
inhibition at 100 µM ([6]; read-out: relative inhibition [%] - USP25 - E373Q, inhibitor 100.00 µM, single replicates): 48.3%
